# Test system: up to 32 different microorganisms
# Experiment: in vitro antibacterial activity (MIC), agar dilution on Brain Heart Infusion (BHI) agar with Steers replicator
# Type: cell-based
# Conditions: unit assumed
# Summary of the method: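 Agar dilution, 12 plates/compound; inoc 1:100 (1:10 Micrococcus, Streptococcus); 35°-37° C, 20–24 h. Erythromycin A reference plate plus drug-free growth controls at start and end. Endpoint = no growth/slight haze/sparse colonies.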
# [1] = Candida albicans CCH 442 (code TT)
# [2] = Enterococcus faecism ATCC 8043 (code II)
# [3] = Escherichia coli DC-2 (code SS)
# [4] = Escherichia coli JUHL (code QQ)
# [5] = Haemophilis influenzae DILL AMP R (code WW)
# [6] = Micrococcus luteus ATCC 4698 (code PP)
# [7] = Micrococcus luteus ATCC 9341 (code OO)
# [8] = Mycobacterium smegmatis ATCC 114 (code UU)
# [9] = Nocardia Asteroides ATCC9970 (code VV)
# [10] = Staphylococcus aureus 1775 (code GG)
# [11] = Staphylococcus aureus A5177 (code BB)
# [12] = Staphylococcus aureus A-5278 (code CC)
# [13] = Staphylococcus aureus ATCC 6538P (code AA)
# [14] = Staphylococcus aureus CMX 553 (code FF)
# [15] = Staphylococcus aureus CMX 642A (code DD)
# [16] = Staphylococcus aureus NCTC10649M (code EE)
# [17] = Staphylococcus epidermidis 3519 (code HH)
# [18] = Streptococcus Pneumonia 5649 (code ZZA)
# [19] = Streptococcus Pneumonia 5979 (code ZZ)
# [20] = Streptococcus Pneumonia ATCC6303 (code XX)
# [21] = Streptococcus Pneumonia GYR 1171 (code YY)
# [22] = Streptococcus agalactiae CMX 508 (code KK)
# [23] = Streptococcus bovis A-5169 (code JJ)
# [24] = Streptococcus pyogenes 930 (code MM)
# [25] = Streptococcus pyogenes EES61 (code LL)
# [26] = Streptococcus pyogenes PIU 2548 (code NN)
compound,measurement,setting,value
"CCC1OC(=O)C(C)C(=O)C(C)C(OC2OC(C)CC(N(C)C)C2O)C(C)(OCC=Cc2cccnc2)CC(C)C(=O)C(C)C2NC(=O)OC12C (stereo not shown) [Example 185, R is —CH2CH═CH-(3-pyridyl)]",MIC,[1],> 100 µg/mL
same,MIC,[2],0.05 µg/mL
same,MIC,[3],100 µg/mL
same,MIC,[4],100 µg/mL
same,MIC,Escherichia coli SS (code RR),0.39 µg/mL
same,MIC,[5],1 µg/mL
same,MIC,[6],0.1 µg/mL
same,MIC,[7],0.01 µg/mL
same,MIC,[8],3.1 µg/mL
same,MIC,[9],0.1 µg/mL
same,MIC,[10],> 100 µg/mL
same,MIC,[11],0.1 µg/mL
same,MIC,[12],> 100 µg/mL
same,MIC,[13],0.1 µg/mL
same,MIC,[14],0.1 µg/mL
same,MIC,[15],0.1 µg/mL
same,MIC,[16],0.1 µg/mL
same,MIC,[17],0.1 µg/mL
same,MIC,[18],0.5 µg/mL
same,MIC,[19],> 128 µg/mL
same,MIC,[20],0.03 µg/mL
same,MIC,[21],0.03 µg/mL
same,MIC,[22],0.01 µg/mL
same,MIC,[23],≤ 0.005 µg/mL
same,MIC,[24],> 100 µg/mL
same,MIC,[25],0.01 µg/mL
same,MIC,[26],0.2 µg/mL
"CC[C@H]1OC(=O)[C@H](C)C(=O)[C@H](C)[C@@H](O[C@@H]2O[C@H](C)C[C@H](N(C)C)[C@H]2O)[C@@](C)(OCCNCc2ccncc2)C[C@@H](C)C(=O)[C@H](C)[C@@H](O)[C@]1(C)O [Example 12, Compound of Formula (VIII): X is O, R is —CH2CH2NHCH2-(4-pyridyl)]",MIC,[1],> 100 µg/mL
same,MIC,[2],1.56 µg/mL
same,MIC,[3],> 100 µg/mL
same,MIC,[4],> 100 µg/mL
same,MIC,Escherichia coli SS (code RR),0.39 µg/mL
same,MIC,[5],32 µg/mL
same,MIC,[6],0.78 µg/mL
same,MIC,[7],0.39 µg/mL
same,MIC,[9],0.39 µg/mL
same,MIC,[10],> 100 µg/mL
same,MIC,[11],3.1 µg/mL
same,MIC,[12],> 100 µg/mL
same,MIC,[13],6.2 µg/mL
same,MIC,[14],6.2 µg/mL
same,MIC,[15],6.2 µg/mL
same,MIC,[16],6.2 µg/mL
same,MIC,[17],12.5 µg/mL
same,MIC,[18],2 µg/mL
same,MIC,[19],> 128 µg/mL
same,MIC,[20],0.25 µg/mL
same,MIC,[22],0.78 µg/mL
same,MIC,[23],0.2 µg/mL
same,MIC,[24],> 100 µg/mL
same,MIC,[25],0.39 µg/mL
same,MIC,[26],1.56 µg/mL
"CC[C@H]1OC(=O)[C@H](C)C(=O)[C@H](C)[C@@H](O[C@@H]2O[C@H](C)C[C@H](N(C)C)[C@H]2O)[C@@](C)(OCC=NOCc2cnc3ccccc3c2)C[C@@H](C)C(=O)[C@H](C)[C@H]2NC(=O)O[C@@]21C [Example 233, Compound of Formula (IX): L is CO, T is NH, R is —CH2CH═NOCH2(3-quinolyl)]",MIC,organism code AA,0.1 µg/mL
same,MIC,organism code BB,0.1 µg/mL
same,MIC,organism code CC,> 100 µg/mL
same,MIC,organism code DD,0.2 µg/mL
same,MIC,organism code EE,0.2 µg/mL
same,MIC,organism code FF,0.1 µg/mL
same,MIC,organism code GG,> 100 µg/mL
same,MIC,organism code HH,0.2 µg/mL
same,MIC,organism code II,0.05 µg/mL
same,MIC,organism code JJ,0.02 µg/mL
same,MIC,organism code KK,0.02 µg/mL
same,MIC,organism code LL,0.02 µg/mL
same,MIC,organism code MM,100 µg/mL
same,MIC,organism code NN,0.1 µg/mL
same,MIC,organism code OO,0.02 µg/mL
same,MIC,organism code PP,0.3 µg/mL
same,MIC,organism code QQ,50 µg/mL
same,MIC,organism code RR,0.39 µg/mL
same,MIC,organism code SS,50 µg/mL
same,MIC,organism code TT,> 100 µg/mL
same,MIC,organism code UU,0.78 µg/mL
same,MIC,organism code VV,0.05 µg/mL
same,MIC,organism code WW,2 µg/mL
same,MIC,organism code XX,0.03 µg/mL
same,MIC,organism code YY,0.03 µg/mL
same,MIC,organism code ZZ,64 µg/mL
same,MIC,organism code ZZA,0.25 µg/mL
"CC[C@H]1OC(=O)[C@H](C)C(=O)[C@H](C)[C@@H](O[C@@H]2O[C@H](C)C[C@H](N(C)C)[C@H]2O)[C@@](C)(OCC=Cc2cnc3ccccc3c2)C[C@@H](C)C(=O)[C@H](C)[C@H]2OC(=O)O[C@@]21C [Example 75, Compound of Formula (IX): L is CO, T is O, R is —CH2CH═CH-(3-quinolyl)]",MIC,[1],100 µg/mL
same,MIC,[2],0.1 µg/mL
same,MIC,[3],> 100 µg/mL
same,MIC,[4],50 µg/mL
same,MIC,Escherichia coli SS (code RR),0.39 µg/mL
same,MIC,[5],2 µg/mL
same,MIC,[6],0.2 µg/mL
same,MIC,[7],0.02 µg/mL
same,MIC,[8],0.39 µg/mL
same,MIC,[9],0.05 µg/mL
same,MIC,[10],> 100 µg/mL
same,MIC,[11],0.1 µg/mL
same,MIC,[12],> 100 µg/mL
same,MIC,[13],0.1 µg/mL
same,MIC,[14],0.1 µg/mL
same,MIC,[15],0.1 µg/mL
same,MIC,[16],0.1 µg/mL
same,MIC,[17],0.1 µg/mL
same,MIC,[18],0.5 µg/mL
same,MIC,[19],64 µg/mL
same,MIC,[20],0.03 µg/mL
same,MIC,[21],0.03 µg/mL
same,MIC,[22],0.01 µg/mL
same,MIC,[23],< 0.005 µg/mL
same,MIC,[24],3.1 µg/mL
same,MIC,[25],0.02 µg/mL
same,MIC,[26],0.1 µg/mL
"C=C(C#CCO[C@@]1(C)C[C@@H](C)C(=O)[C@H](C)[C@H]2NC(=O)O[C@]2(C)[C@@H](CC)OC(=O)[C@H](C)C(=O)[C@H](C)[C@H]1O[C@@H]1O[C@H](C)C[C@H](N(C)C)[C@H]1O)c1ccccc1 [Example 257, Compound of Formula (IX): L is CO, T is NH, R is —CH2—C≡C-(1-phenylethenyl)]",MIC,organism code AA,0.2 µg/mL
same,MIC,organism code BB,0.2 µg/mL
same,MIC,organism code CC,> 100 µg/mL
same,MIC,organism code DD,0.2 µg/mL
same,MIC,organism code EE,0.2 µg/mL
same,MIC,organism code FF,0.2 µg/mL
same,MIC,organism code GG,> 100 µg/mL
same,MIC,organism code HH,0.2 µg/mL
same,MIC,organism code II,0.1 µg/mL
same,MIC,organism code JJ,0.01 µg/mL
same,MIC,organism code KK,0.05 µg/mL
same,MIC,organism code LL,0.01 µg/mL
same,MIC,organism code MM,100 µg/mL
same,MIC,organism code NN,0.2 µg/mL
same,MIC,organism code OO,0.05 µg/mL
same,MIC,organism code PP,0.2 µg/mL
same,MIC,organism code QQ,> 100 µg/mL
same,MIC,organism code RR,0.78 µg/mL
same,MIC,organism code SS,> 100 µg/mL
same,MIC,organism code TT,> 100 µg/mL
same,MIC,organism code UU,0.39 µg/mL
same,MIC,organism code VV,0.2 µg/mL
same,MIC,organism code WW,8 µg/mL
same,MIC,organism code XX,0.125 µg/mL
same,MIC,organism code YY,0.125 µg/mL
same,MIC,organism code ZZ,128 µg/mL
same,MIC,organism code ZZA,0.5 µg/mL
"CC[C@H]1OC(=O)[C@H](C)C(=O)[C@H](C)[C@@H](O[C@@H]2O[C@H](C)C[C@H](N(C)C)[C@H]2O)[C@@](C)(OCC=NOCc2ccnc3ccccc23)C[C@@H](C)C(=O)[C@H](C)[C@H]2NC(=O)O[C@@]21C [Example 231, Compound of Formula (IX): L is CO, T is NH, R is —CH2CH═NOCH2(4-quinolyl)]",MIC,organism code AA,0.1 µg/mL
same,MIC,organism code BB,0.1 µg/mL
same,MIC,organism code CC,> 100 µg/mL
same,MIC,organism code DD,0.1 µg/mL
same,MIC,organism code EE,0.1 µg/mL
same,MIC,organism code FF,0.05 µg/mL
same,MIC,organism code GG,> 100 µg/mL
same,MIC,organism code HH,0.2 µg/mL
same,MIC,organism code II,0.02 µg/mL
same,MIC,organism code JJ,0.02 µg/mL
same,MIC,organism code KK,0.02 µg/mL
same,MIC,organism code LL,0.02 µg/mL
same,MIC,organism code MM,100 µg/mL
same,MIC,organism code NN,0.1 µg/mL
same,MIC,organism code OO,0.02 µg/mL
same,MIC,organism code PP,0.1 µg/mL
same,MIC,organism code QQ,100 µg/mL
same,MIC,organism code RR,0.39 µg/mL
same,MIC,organism code SS,100 µg/mL
same,MIC,organism code TT,> 100 µg/mL
same,MIC,organism code UU,0.78 µg/mL
same,MIC,organism code VV,0.05 µg/mL
same,MIC,organism code WW,2 µg/mL
same,MIC,organism code XX,0.03 µg/mL
same,MIC,organism code YY,0.03 µg/mL
same,MIC,organism code ZZ,> 128 µg/mL
same,MIC,organism code ZZA,0.5 µg/mL

# Reference: USRE39591E1, “6-O-substituted ketolides having antibacterial activity” (Abbott Laboratories, priority 1996, dated 2007)
